Experimental data taken from US7125995B2, “Substituted amidoalkyl uracils and their use as inhibitors of the poly(adp-ribose) synthetase (PARS)” (Bayer Aktiengesellschaft, priority 2000, dated 2006).

tested on: MHEC5-T cells; assay: Cell protection assay (in vitro), H2O2-induced cell death, Alamar blue; type: cell-based; conditions: 3 mM H2O2, 5 hours, 37° C., 50% of maximum cell protection, 10 μM DHCH defined as 100%, read-out: Cell protection (in vitro) EC50
Experimental: In accordance with a method described by Bowes [Bowes et al., Br. J. Pharmacol., 124, 1760–1766 (1998)], the ability of PARS inhibitors to protect cells against cell death induced by incubation with H2O2 is examined in a cell protection assay. Incubation of endothelial cells with H2O2 results in the generation of DNA strand breaks which in turn activate PARS, resulting in a drastic energy decrease in the cells and in cell death. Living cells are quantified by a fluorimetric redox indicator (Alamar blue), which is converted in the electron transport system of the mitochondria.
Specifically, 7500 MHEC5-T cells/well (DSM ACC 336; German collection of microorganisms and cell cultures) are sown in 4 replications on a 96-well plate. After 24 hours, the cells are incubated with 3 mM aqueous H2O2 solution and differing concentrations of the substances in the presence of 6% by volume of Alamar blue solution in the medium at 37° C. for 5 hours. The reference substance used is 10 μM 1,5-dihydroxyisoquinoline (DHCH) solution. After the incubation, the fluorescence is measured at an excitation wavelength of 530–560 nm and an emission wavelength of 590 nm. The percentage for the cell protection is calculated as the difference between the living cells treated only with H2O2 and the cells treated with H2O2 and PARS inhibitors. The internal standard used is 10 μM DHCH, which is defined as 100% protection. The results obtained for the other substances are compared to this value.
The EC50 values indicate the concentration at which 50% of maximum cell protection is reached, maximum protection by 10 μM DHCH being defined as 100%.

SMILES | EC50
O=C(CCn1c2c(c(=O)[nH]c1=O)CSCC2)NCC(=O)c1ccc(-c2cnccn2)cc1 [Example 5, 3-(2,4-Dioxo-3,4,7,8-tetrahydro-2H-thiopyrano [4,3-d]pyrimidin-1(5H)-yl)-N-(2-oxo-2-[4-(2-pyrazinyl)phenyl]ethyl)propanecarboxamide] | 70 nM
O=C(CCn1c2c(c(=O)[nH]c1=O)CCCC2)NCC(=O)c1ccc(-c2ccncc2)cc1 [Example 7] | 90 nM
O=C(CCn1c2c(c(=O)[nH]c1=O)CSCC2)NCC(=O)c1ccc(-c2ccc3c(c2)OCO3)cc1 [Example 12] | 95 nM
Cc1csc2c(N3CCN(C(=O)CNC(=O)CCn4c5c(c(=O)[nH]c4=O)CSCC5)CC3)ncnc12 [Example 15] | 50 nM
O=C(CCn1c2c(c(=O)[nH]c1=O)CSCC2)NCC(=O)N1CCN(c2ncc(Br)cn2)CC1 [Example 24] | 20 nM
O=C(CCn1c2c(c(=O)[nH]c1=O)CSCC2)NCC(=O)N1CCN(c2ccccc2)CC1 [Example 30] | 100 nM
O=C(CCn1c2c(c(=O)[nH]c1=O)CCCC2)NCC(=O)N1CCN(c2ccc([N+](=O)[O-])cc2)CC1 [Example 32] | 200 nM
O=C(CCn1c2c(c(=O)[nH]c1=O)CCCC2)NCC(=O)N1CCN(c2ncc(F)cn2)CC1 [Example 40] | 90 nM

same assay, conditions: 3 mM H2O2, 5 hours, reference substance, read-out: Cell protection EC50 value

SMILES | EC50
Oc1cccc2c(O)nccc12 [DHCH, 1,5-dihydroxyisoquinoline, reference compound] | 2000 nM

target: T1, human PARS enzyme (Homo sapiens, UniProt P09874); assay: PARS inhibition test (in vitro); type: biochemical; conditions: recombinant human PARS, [14C]-NAD+, 10 min room temperature
T1 construct: made in house; host or cells: baculovirus expression system (Bac-To-Bac, Life Technologies)
Experimental: To this end, recombinantly expressed (Bac-To-Bac, Baculo virus expression system; Instruction Manual; Life Technologies) human PARS enzyme is activated in a buffer which contains radioactively labelled [^14C]—NAD^+. The poly(ADP-ribose) units that are synthesized are precipitated using trichloroacetic acid, and the proportion of labelled protein is determined by scintillation measurements. Incubation of PARS with inhibitors leads to a decrease in the proportion of labelled protein and thus to a reduced radioactivity.
• Buffer: 100 mM 2-amino-2-hydroxymethyl-1,3-propanediol (tris)-HCl, pH 7.4 • 10 mM MgCl2 • 1 mM dithiothreitol (DTT) • Tris-HCl and MgCl2 are dissolved in water, DTT is added from an aqueous 100 mM stock solution (stored at −20° C.) and the pH is adjusted with concentrated HCl to 7.4. • DNA: 1 mg/ml of calf thymus DNA • 1 mg/ml of calf thymus DNA (from Sigma) is dissolved in water and sonicated to induce strand breaks. 500 μl aliquots were stored at −20° C. • Histones: 10 mg/ml of type IIA histones, calf thymus • 10 mg/ml of lyophilized histones (from Sigma) are dissolved in water. • 500 μl aliquots are stored at −20° C. • NAD^+ Mix: 2 mM NAD^+ in buffer, • NAD^+ (from Sigma) solutions are prepared freshly before each test. • In each case 3 μl of labelled [^14C]—NAD^+ (2.8 kBq, from Amersham) are added to 7 μl of cold NAD^+ solution. • Trichloroacetic acid (TCA): TCA is stored at 4° C. as a 10% strength by weight solution. • PARS: Human PARS protein is expressed recombinantly in the baculovirus system (Bac-To-Bac, Baculo virus expression system; Instruction Manual; Life Technologies) and purified. 500 μl aliquots are stored at −80° C. Methods
The compounds to be tested are dissolved in DMSO (dimethyl sulphoxide) at a concentration of 10 mM. The assay is carried out in deep 96-well plates. […] The mixture is incubated at room temperature for 10 min, and 1 ml of ice-cold TCA solution is then added, and the precipitated labelled proteins are sucked onto a filter paper (printed filter mat A; from Wallac) using a harvester (from Scatron). The filter is dried, sealed together with a scintillation sheet (Multilex A; from Wallac) and measured in a β counter for 1 min per well.
In addition to the substances described in this application, the known PARS inhibitor 1,5-dihydroxyisoquinoline (DHCH) is tested as reference substance. The results of the test are stated as IC50 values for the inhibition of PARS.

T1 sequence (P09874 whole entry): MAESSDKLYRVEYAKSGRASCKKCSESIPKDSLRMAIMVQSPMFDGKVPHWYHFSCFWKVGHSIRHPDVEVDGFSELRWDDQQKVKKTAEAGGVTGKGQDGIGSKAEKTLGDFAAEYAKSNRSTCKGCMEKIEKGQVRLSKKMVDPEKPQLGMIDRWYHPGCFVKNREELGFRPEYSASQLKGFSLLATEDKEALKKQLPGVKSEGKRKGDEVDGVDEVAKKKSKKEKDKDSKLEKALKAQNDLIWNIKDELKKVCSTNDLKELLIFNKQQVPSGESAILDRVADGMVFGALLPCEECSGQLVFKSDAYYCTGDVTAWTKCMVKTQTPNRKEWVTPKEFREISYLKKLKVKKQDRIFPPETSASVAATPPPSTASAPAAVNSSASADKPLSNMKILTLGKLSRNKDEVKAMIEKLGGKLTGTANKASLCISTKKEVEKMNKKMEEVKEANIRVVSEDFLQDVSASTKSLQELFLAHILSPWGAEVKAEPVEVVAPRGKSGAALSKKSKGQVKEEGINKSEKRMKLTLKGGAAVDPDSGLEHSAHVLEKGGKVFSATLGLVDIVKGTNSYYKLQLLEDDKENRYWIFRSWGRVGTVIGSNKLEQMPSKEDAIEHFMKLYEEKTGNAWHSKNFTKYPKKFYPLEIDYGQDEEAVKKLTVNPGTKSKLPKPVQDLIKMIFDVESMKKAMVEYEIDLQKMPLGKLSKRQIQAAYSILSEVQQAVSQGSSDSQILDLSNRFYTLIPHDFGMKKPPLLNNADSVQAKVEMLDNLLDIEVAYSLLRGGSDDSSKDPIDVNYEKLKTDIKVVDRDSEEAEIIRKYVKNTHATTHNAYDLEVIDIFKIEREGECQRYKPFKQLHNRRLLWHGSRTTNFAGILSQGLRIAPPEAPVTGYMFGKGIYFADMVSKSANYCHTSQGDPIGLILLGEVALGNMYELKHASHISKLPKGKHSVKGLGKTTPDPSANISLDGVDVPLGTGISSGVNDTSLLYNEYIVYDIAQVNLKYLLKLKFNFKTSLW

IC50 | SMILES
8.5 nM | O=C(CCn1c2c(c(=O)[nH]c1=O)CSCC2)NCC(=O)c1ccc2ccccc2c1 [Example 6]
12 nM | O=C(CCn1c2c(c(=O)[nH]c1=O)CCCC2)NCC(=O)c1ccc(-c2ccncc2)cc1 [Example 7]
15 nM | Cc1csc2c(N3CCN(C(=O)CNC(=O)CCn4c5c(c(=O)[nH]c4=O)CSCC5)CC3)ncnc12 [Example 15]
80 nM | O=C(CCn1c2c(c(=O)[nH]c1=O)CCCC2)NCC(=O)N1CCN(c2ccccc2C(F)(F)F)CC1 [Example 54]
